The values that follow come from doi:10.1101/2021.12.18.473277v2 (biorxiv, 2022).

Each structure is given as a SMILES string.

One experiment has as its target HDAC1 (Homo sapiens, UniProt Q13547). As to the kind of experiment: continuous fluorogenic AMC assay, progression curves, kobs fit. It counts as biochemical.
Experiment [1] has as its target HDAC3 (with DAD of NCoR2) (Homo sapiens, UniProt O15379). As to the kind of experiment: fluorogenic activity assay with added InsP6. Format: biochemical. Conditions: activator; stabilises the HDAC3/NCoR2 DAD complex.

Sequence of HDAC3 (with DAD of NCoR2) (O15379 whole entry): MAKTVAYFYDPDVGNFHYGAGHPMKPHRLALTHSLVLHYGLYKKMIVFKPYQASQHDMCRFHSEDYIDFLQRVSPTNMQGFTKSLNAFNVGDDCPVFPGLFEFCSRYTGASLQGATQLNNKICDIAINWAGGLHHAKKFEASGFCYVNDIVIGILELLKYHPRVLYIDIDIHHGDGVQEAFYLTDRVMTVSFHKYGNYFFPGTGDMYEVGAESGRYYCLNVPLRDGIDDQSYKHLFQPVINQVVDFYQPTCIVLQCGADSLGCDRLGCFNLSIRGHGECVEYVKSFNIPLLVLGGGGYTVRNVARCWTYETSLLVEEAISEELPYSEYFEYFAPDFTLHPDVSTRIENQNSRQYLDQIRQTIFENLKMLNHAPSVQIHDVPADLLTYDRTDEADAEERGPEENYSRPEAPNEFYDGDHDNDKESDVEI
Sequence of HDAC3 (with DAD of NCoR2) (Q9Y618 395-489 partner limits assumed): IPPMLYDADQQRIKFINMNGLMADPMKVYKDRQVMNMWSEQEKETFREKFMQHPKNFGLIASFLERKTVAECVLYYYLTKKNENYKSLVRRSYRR
Sequence of HDAC1 (Q13547 whole entry): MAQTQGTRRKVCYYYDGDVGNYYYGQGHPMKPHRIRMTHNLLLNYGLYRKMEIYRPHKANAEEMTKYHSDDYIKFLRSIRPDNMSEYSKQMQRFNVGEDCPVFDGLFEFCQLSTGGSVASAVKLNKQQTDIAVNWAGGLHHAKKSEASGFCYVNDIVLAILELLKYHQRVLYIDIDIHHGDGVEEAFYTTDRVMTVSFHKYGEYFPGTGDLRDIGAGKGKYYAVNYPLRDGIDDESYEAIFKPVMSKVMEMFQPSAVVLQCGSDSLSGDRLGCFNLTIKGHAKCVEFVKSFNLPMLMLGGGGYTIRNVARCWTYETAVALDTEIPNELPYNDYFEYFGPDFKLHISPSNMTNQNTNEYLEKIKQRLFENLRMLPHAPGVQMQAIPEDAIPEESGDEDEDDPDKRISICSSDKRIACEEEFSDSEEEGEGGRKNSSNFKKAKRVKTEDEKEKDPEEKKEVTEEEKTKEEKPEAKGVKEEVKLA

A word on the Ki: it is the equilibrium dissociation constant of an inhibitor or competing ligand from its target. For `CCCNNC(=O)c1ccc(CNC(=O)/C=C/c2ccccc2)cc1` [compound 5], the Ki at HDAC1 is roughly 40 nM.
For the molecule `O=P(O)(O)O[C@H]1[C@H](OP(=O)(O)O)[C@@H](OP(=O)(O)O)[C@H](OP(=O)(O)O)[C@@H](OP(=O)(O)O)[C@H]1OP(=O)(O)O` [inositol hexaphosphate], in experiment [1], the “fluorogenic activity assay with added InsP6” value is “Addition of InsP6 enhanced HDAC activity”.
